From ChEMBL document CHEMBL1909511, “Inhalation by design: novel tertiary amine muscarinic M₃ receptor antagonists with slow off-rate binding kinetics for inhaled once-daily treatment of chronic obstructive pulmonary disease” (J Med Chem, 2011)

Assays:
[1] = Intrinsic clearance in human liver microsomes assessed per mg of protein in presence of NADPH
[2] = Intrinsic clearance in human liver microsomes assessed per mg of protein by glucuronidation assay in presence of Brijj-58 and UDPGA
[3] = biological target: T1, Muscarinic acetylcholine receptor M3 (Homo sapiens, UniProt P20309); conditions: CHO
Target sequence in this assay (P20309 whole entry, looked up): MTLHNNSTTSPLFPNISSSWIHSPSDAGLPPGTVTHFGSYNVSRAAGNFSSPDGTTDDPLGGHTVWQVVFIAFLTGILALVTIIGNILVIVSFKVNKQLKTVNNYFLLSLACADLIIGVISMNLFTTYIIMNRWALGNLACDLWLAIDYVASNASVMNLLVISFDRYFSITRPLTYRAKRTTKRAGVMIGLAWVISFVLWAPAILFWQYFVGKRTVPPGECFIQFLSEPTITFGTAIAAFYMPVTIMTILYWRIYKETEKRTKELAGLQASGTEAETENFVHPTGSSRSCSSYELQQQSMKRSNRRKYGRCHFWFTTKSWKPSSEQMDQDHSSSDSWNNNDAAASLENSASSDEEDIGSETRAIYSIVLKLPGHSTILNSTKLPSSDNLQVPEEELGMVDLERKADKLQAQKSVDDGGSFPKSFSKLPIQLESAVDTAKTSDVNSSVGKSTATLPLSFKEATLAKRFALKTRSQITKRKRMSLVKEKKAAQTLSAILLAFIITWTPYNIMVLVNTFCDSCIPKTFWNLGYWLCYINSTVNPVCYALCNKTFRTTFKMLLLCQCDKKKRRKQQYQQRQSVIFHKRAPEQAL

[4] = biological target: T1, Muscarinic acetylcholine receptor M3; test: Antagonist activity at human recombinant M3 receptor expressed in CHO-K1 cells assessed as inhibition of carbamoyl choline-induced calcium currents after 4 hrs by fluorimetry; type: functional, cell-based
Target sequence in this assay (P20309 whole entry): as the sequence (P20309 whole entry, looked up) above

[5] = Intrinsic clearance in human hepatocytes assessed per million cells
[6] = biological target: Muscarinic acetylcholine receptor M3 (Cavia porcellus) (UniProt Q8VH26); test: Antagonist activity at M3 receptor in Dunkin-Hartley guinea pig tracheal strips assessed as time taken for electrically field-stimulated contractile response to recover by 25 percent of inhibition at Emax after 2 hrs; type: functional
Muscarinic acetylcholine receptor M3 (Cavia porcellus), sequence (Q8VH26 1-587): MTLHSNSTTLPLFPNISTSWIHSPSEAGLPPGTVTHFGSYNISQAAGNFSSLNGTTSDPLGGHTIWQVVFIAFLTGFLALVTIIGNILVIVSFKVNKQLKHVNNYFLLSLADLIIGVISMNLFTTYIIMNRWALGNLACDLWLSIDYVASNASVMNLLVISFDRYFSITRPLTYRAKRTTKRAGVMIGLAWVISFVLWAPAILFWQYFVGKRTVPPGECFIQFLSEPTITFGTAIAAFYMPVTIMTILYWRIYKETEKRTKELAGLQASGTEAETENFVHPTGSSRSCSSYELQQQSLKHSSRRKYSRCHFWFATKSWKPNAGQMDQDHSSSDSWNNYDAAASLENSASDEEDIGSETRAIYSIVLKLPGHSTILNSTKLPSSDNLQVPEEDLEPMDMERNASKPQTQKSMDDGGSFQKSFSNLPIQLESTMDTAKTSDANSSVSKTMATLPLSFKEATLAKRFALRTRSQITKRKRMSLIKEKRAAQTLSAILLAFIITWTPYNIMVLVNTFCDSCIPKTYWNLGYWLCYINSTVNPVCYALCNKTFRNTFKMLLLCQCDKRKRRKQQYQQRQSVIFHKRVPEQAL

[7] = biological target: T2, Muscarinic acetylcholine receptor M4 (Homo sapiens) (UniProt P08173); test: Displacement of [3H]-NMS from human recombinant M4 receptor expressed in CHO cells assessed as dissociation half life at 100 fold human M4 receptor binding Ki concentration after 24 hrs by dilution-offset filter binding assay; type: cell-based
T2 sequence (whole entry): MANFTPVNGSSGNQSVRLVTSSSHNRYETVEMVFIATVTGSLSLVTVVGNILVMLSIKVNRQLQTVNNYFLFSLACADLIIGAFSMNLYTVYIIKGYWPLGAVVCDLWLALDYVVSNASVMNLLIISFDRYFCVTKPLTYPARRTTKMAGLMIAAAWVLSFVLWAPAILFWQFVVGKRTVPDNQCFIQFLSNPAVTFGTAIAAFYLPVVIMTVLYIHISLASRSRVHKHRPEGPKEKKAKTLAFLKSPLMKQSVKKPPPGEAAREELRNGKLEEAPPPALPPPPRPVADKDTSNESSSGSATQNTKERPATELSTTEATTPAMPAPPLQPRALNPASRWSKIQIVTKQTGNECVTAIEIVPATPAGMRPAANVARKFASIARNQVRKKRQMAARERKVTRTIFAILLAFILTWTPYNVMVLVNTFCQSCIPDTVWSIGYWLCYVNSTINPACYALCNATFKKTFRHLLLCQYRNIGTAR

[8] = biological target: T1, Muscarinic acetylcholine receptor M3
Target sequence in this assay (P20309 whole entry, looked up): as the sequence (P20309 whole entry, looked up) above

[9] = biological target: T1, Muscarinic acetylcholine receptor M3; conditions: CHO; remark: listed apart in the source
Target sequence in this assay (P20309 whole entry, looked up): as above

[10] = biological target: T3, Muscarinic acetylcholine receptor M5 (Homo sapiens) (UniProt P08912); test: Displacement of [3H]-NMS from human recombinant M5 receptor expressed in CHO cells assessed as dissociation half life at 100 fold human M5 receptor binding Ki concentration after 24 hrs by dilution-offset filter binding assay; type: cell-based
T3 sequence (whole entry): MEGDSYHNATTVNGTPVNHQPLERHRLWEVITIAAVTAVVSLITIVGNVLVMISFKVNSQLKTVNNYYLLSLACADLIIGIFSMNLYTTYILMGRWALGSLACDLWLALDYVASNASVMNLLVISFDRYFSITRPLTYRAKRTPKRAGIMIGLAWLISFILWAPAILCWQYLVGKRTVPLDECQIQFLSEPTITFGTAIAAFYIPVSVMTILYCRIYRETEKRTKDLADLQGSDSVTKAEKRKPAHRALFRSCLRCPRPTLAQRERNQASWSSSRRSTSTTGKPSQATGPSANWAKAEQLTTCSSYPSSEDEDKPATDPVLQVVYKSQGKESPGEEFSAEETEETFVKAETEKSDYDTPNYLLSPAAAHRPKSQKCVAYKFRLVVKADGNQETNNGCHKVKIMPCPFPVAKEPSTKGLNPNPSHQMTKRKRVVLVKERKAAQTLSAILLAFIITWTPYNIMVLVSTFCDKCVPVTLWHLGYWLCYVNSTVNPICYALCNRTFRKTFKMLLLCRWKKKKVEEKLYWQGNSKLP

[11] = biological target: T4, Muscarinic acetylcholine receptor M2 (Homo sapiens) (UniProt P08172); test: Displacement of [3H]-NMS from human recombinant M2 receptor expressed in CHO cells assessed as dissociation half life at 100 fold human M2 receptor binding Ki concentration after 24 hrs by dilution-offset filter binding assay; type: cell-based
T4 sequence (whole entry): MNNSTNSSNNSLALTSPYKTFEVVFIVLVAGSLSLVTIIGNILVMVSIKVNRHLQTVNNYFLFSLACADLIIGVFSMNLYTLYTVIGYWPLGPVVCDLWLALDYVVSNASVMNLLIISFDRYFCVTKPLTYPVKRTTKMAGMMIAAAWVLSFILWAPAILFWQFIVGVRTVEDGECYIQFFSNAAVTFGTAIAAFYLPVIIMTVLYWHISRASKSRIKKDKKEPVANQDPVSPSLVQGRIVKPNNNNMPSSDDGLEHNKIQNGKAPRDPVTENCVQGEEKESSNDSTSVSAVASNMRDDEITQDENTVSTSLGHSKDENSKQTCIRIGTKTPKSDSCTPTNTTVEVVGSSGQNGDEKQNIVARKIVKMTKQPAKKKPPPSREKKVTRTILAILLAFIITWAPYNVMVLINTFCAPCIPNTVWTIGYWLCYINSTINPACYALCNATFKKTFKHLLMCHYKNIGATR

[12] = test system: Canis familiaris; test: Bronchodilator activity in Beagle dog assessed as inhibition of methacholine-induced lung resistance after cumulative intratracheal administration in micelle solution at hourly intervals challenged each time 1 hr later with methacholine; type: functional, Canis lupus familiaris
[13] = biological target: T1, Muscarinic acetylcholine receptor M3; remark: listed apart in the source
Target sequence in this assay (P20309 whole entry, looked up): as the sequence (P20309 whole entry, looked up) above
Description: Displacement of radioligand from M3 receptor assessed as dissociation half life

[14] = biological target: T5, Muscarinic acetylcholine receptor M5 (Homo sapiens, UniProt P08912); test: Displacement of [3H]-NMS from human recombinant M5 receptor expressed in CHO cells after 24 hrs by filter binding assay; type: cell-based
T5 sequence (P08912 whole entry): T3 sequence (whole entry)

[15] = biological target: T6, Muscarinic acetylcholine receptor M4 (Homo sapiens, UniProt P08173); test: Displacement of [3H]-NMS from human recombinant M4 receptor expressed in CHO cells after 24 hrs by filter binding assay; type: cell-based
T6 sequence (P08173 whole entry): T2 sequence (whole entry)

[16] = test system: Canis familiaris; test: Bronchodilator activity in methacholine challenged Beagle dog assessed as intrinsic duration of action at 10 ug intratracheally administered as single dose in micelle solution; type: functional, Canis lupus familiaris
[17] = biological target: T7, Muscarinic acetylcholine receptor M1 (Homo sapiens) (UniProt P11229); test: Displacement of [3H]-NMS from human recombinant M1 receptor expressed in CHO cells assessed as dissociation half life at 100 fold human M1 receptor binding Ki concentration after 24 hrs by dilution-offset filter binding assay; type: cell-based
T7 sequence (whole entry): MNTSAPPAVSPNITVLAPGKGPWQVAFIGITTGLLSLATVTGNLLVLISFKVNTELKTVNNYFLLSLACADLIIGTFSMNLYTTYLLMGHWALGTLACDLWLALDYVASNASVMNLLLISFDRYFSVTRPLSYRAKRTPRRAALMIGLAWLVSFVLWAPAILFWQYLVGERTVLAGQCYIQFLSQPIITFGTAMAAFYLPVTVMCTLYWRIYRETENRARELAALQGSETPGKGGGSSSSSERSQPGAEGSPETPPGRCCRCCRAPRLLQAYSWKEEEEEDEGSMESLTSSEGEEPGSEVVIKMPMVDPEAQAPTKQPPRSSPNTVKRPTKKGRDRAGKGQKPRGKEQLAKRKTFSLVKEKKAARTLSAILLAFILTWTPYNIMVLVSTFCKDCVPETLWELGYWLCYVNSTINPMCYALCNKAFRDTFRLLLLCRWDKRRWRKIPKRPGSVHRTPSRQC

[18] = Apparent permeability across basolateral to apical side in human Caco2 cells; type: ADME, cell-based; conditions: Caco-2
[19] = Apparent permeability across apical to basolateral side in human Caco2 cells; type: ADME, cell-based; conditions: Caco-2
[20] = biological target: T8, Muscarinic acetylcholine receptor M2 (Homo sapiens, UniProt P08172); test: Displacement of [3H]-NMS from human recombinant M2 receptor expressed in CHO cells after 2 hrs by filter binding assay; type: cell-based
T8 sequence (P08172 whole entry): T4 sequence (whole entry)

[21] = biological target: T1, Muscarinic acetylcholine receptor M3; test: Displacement of [3H]-NMS from human recombinant M3 receptor expressed in CHO cells after 2 hrs by filter binding assay; type: cell-based
Target sequence in this assay (P20309 whole entry): as the sequence (P20309 whole entry, looked up) above

[22] = biological target: Muscarinic acetylcholine receptor M3 (Cavia porcellus, UniProt Q8VH26); test: Antagonist activity at M3 receptor in Dunkin-Hartley guinea pig tracheal strips assessed as inhibition of electrically field-stimulated contractile response after 8 hrs; type: functional
Muscarinic acetylcholine receptor M3 (Cavia porcellus, UniProt Q8VH26), sequence (Q8VH26 whole entry): as the sequence (Q8VH26 1-587) above

[23] = test system: Cavia porcellus; test: Bronchodilator activity in Dunkin-Hartley guinea pig assessed as inhibition of […] lung resistance after cumulative intratracheal administration in micelle solution at hourly intervals challenged each time 1 hr later with methacholine; type: functional, organism-based

SMILES: CC(C)(CCC(C(N)=O)(c1ccccc1)c1ccccc1)N1CC(OCc2cccc(O)c2)C1
- microsomal CLint [1]: 364 µL/min/mg
- microsomal CLint [2]: 13 µL/min/mg
- T1/2 [3]: 20.7 h
- Ki [4]: 0.18 nM
- hepatocyte CLint [5]: 34 µL/min/1e6 cells

SMILES: C[N+]1(C)[C@@H]2C[C@@H](OC(=O)C(O)(c3cccs3)c3cccs3)C[C@H]1[C@@H]1O[C@@H]12.O.[Br-] [TIOTROPIUM BROMIDE]
- TIME [6]: > 12.9 h
- T1/2 [7]: > 24 h
- pKb [8]: 10.2
- T1/2 [9]: > 22.8 h
- T1/2 [10]: > 24 h
- T1/2 [11]: > 13 h
- ID50 [12]: 3 µg
- T1/2 [13]: 9.45 h
- T1/2 [3]: > 24 h
- Ki [14]: 0.0266 nM
- Ki [15]: 7.8 pM
- Time [16]: 32 h
- T1/2 [17]: > 23.8 h

SMILES: CC(C)(CCC(C(N)=O)(c1ccccc1)c1ccccc1)N1CC[C@H](Oc2ccccc2)C1
- Papp B→A [18]: 13 ×10⁻⁶ cm/s
- T1/2 [3]: > 24 h
- Papp A→B [19]: 16 ×10⁻⁶ cm/s
- Ki [4]: 0.25 nM
- Ki [20]: 1.6 nM
- Ki [21]: 1.8 nM

SMILES: CC(C)(CCC(C(N)=O)(c1ccccc1)c1ccccc1)N1CC[C@H](Oc2ccc(Cl)c(O)c2)C1
- T1/2 [3]: 13.4 h
- Ki [4]: 2 nM

SMILES: CC(C)(CCC(C(N)=O)(c1ccccc1)c1ccccc1)N1CC[C@@H](Oc2cccc(O)c2)C1
- TIME [6]: > 16 h
- IC50 [22]: 3.87 nM
- ED50 [23]: 20 µg

SMILES: CC(C)(CCC(C(N)=O)(c1ccccc1)c1ccccc1)N1CC(Oc2cc(O)cc(F)c2)C1
- microsomal CLint [1]: 176 µL/min/mg
- microsomal CLint [2]: 403 µL/min/mg

SMILES: CC(C)(CCC(C(N)=O)(c1ccccc1)c1ccccc1)N1CC[C@@H](Oc2cc(O)cc(F)c2)C1
- microsomal CLint [1]: > 440 µL/min/mg
- T1/2 [3]: > 24 h
- Ki [4]: 0.56 nM
- hepatocyte CLint [5]: 114 µL/min/1e6 cells

SMILES: CC(C)(CCC(C(N)=O)(c1ccccc1)c1ccccc1)N1CC(Oc2cc(O)cc(Cl)c2)C1
- microsomal CLint [1]: 361 µL/min/mg
- microsomal CLint [2]: 223 µL/min/mg
- Ki [4]: 0.22 nM
- hepatocyte CLint [5]: 116 µL/min/1e6 cells

SMILES: CC(C)(CCC(C(N)=O)(c1ccccc1)c1ccccc1)N1CC[C@@H](Oc2ccccc2)C1
- T1/2 [3]: > 24 h
- Ki [4]: 1.6 nM
- Ki [20]: 12 nM
- Ki [21]: 6.4 nM

SMILES: CC(C)(CCC(C(N)=O)(c1ccccc1)c1ccccc1)N1CC(Oc2cccc(O)c2F)C1
- TIME [6]: > 16 h
- IC50 [22]: 3.48 nM
- ED50 [23]: 4 µg

SMILES: CC(C)[N+]1(C)C2CCC1CC(OC(=O)C(CO)c1ccccc1)C2.O.[Br-] (stereo not given)
- TIME [6]: 1.47 h
- ID50 [12]: 10 µg

SMILES: CC(C)(CCC(C(N)=O)(c1ccccc1)c1ccccc1)N1CC[C@H](Oc2ccc(O)cc2)C1
- T1/2 [3]: 3.82 h
- Ki [4]: 0.76 nM

SMILES: NC(=O)C(CCCN1CC[C@H](Oc2ccccc2)C1)(c1ccccc1)c1ccccc1
- T1/2 [3]: 0.633 h
- Ki [4]: 2.4 nM
- Ki [20]: 15 nM
- Ki [21]: 1.9 nM

SMILES: CC(C)(CCC(C(N)=O)(c1ccccc1)c1ccccc1)N1CC(Oc2ccccc2)C1
- microsomal CLint [1]: > 440 µL/min/mg
- T1/2 [3]: 8.02 h
- Ki [20]: 0.056 nM
- Ki [21]: 0.11 nM

SMILES: CC(C)(CCC(C(N)=O)(c1ccccc1)c1ccccc1)N1CC(Oc2ccc(Cl)c(O)c2)C1
- microsomal CLint [1]: 116 µL/min/mg
- microsomal CLint [2]: 430 µL/min/mg
- T1/2 [3]: 23.5 h
- Ki [4]: 1.9 nM
- hepatocyte CLint [5]: 159 µL/min/1e6 cells

SMILES: CC(C)(CCC(C(N)=O)(c1ccccc1)c1ccccc1)N1CC(Oc2ccccc2O)C1
- Ki [4]: 11 nM

SMILES: CC(C)(CCC(C(N)=O)(c1ccccc1)c1ccccc1)N1CC[C@H](Oc2cccc(O)c2)C1
- TIME [6]: > 16 h
- IC50 [22]: 4.3 nM
- ED50 [23]: 10 µg

SMILES: CC(C)(CCC(C(N)=O)(c1ccccc1)c1ccccc1)N1CCC(Oc2ccccc2)CC1
- T1/2 [3]: 17.5 h
- Ki [20]: 2.6 nM
- Ki [21]: 3.9 nM
